Experimental data: paper PMC10465233, “Lys-urea-Aad, Lys-urea-Cmc and Lys-urea-Cms as potential pharmacophores for the design of PSMA-targeted radioligands to reduce off-target uptake in kidneys and salivary glands” (Theranostics, 2023)
Values joined by “and” are separate entries in the source; they are usually repeats but may differ in a detail not shown here. Equal values may be shown once. Read-outs that look alike come from different tables or passages of the source.

What was measured:
LNCaP tumor-bearing mice [1] = experiment: Radioligand therapy study in LNCaP tumor-bearing mice; assay type: in vivo, mouse; conditions: 37 MBq injected
Procedure: (§1) Imaging, biodistribution and radioligand therapy experiments were performed following previously published procedures using male NOD-scid IL2Rg^null (NSG) or NOD.Cg-Rag1^tm1MomIl2rg^tm1Wjl/SzJ (NRG) mice [10]-[12],[14]-[15]. The experiments were conducted according to the guidelines established by the Canadian Council on Animal Care and approved by Animal Ethics Committee of the University of British Columbia. The mice were briefly sedated by inhalation of 2% isoflurane in oxygen, and implanted subcutaneously with 1×10^7 LNCaP cells behind the left shoulder. The mice were imaged or used in biodistribution studies when the tumor grew to 5-8 mm in diameter over a period of 4-5 weeks.
For radiotherapy study, tumor-bearing mice were injected with saline (the control group), [^177Lu]Lu-PSMA-617 (37 MBq) or [^177Lu]-HTK03170 (37, 18.5 and 9.3 MBq) (n = 7-8 per treatment group). Tumor size and body weight were measured twice a week from the date of injection (Day 0) until completion of the study (Day 180). Endpoint criteria were defined as > 20% weight loss, tumor volume > 1000 mm^3, or active ulceration of the tumor.

[2] = parameters: method as in earlier work; conditions: cited from earlier work
LNCaP tumor-bearing mice [3] = conditions: cited from earlier work; for Kidney uptake / Tumor uptake / Salivary gland uptake: 1 h post-injection; for Salivary gland uptake: unreported data in b5
LNCaP tumor-bearing mice [4] = experiment: Ex vivo biodistribution in LNCaP tumor-bearing mice; parameters: species or system mouse; conditions: for Time of peak tumor uptake: post-injection
Procedure: as §1
For biodistribution studies, the mice were injected with the radioligand (2-4 MBq) as described above. For blocking, the mice were co-injected with nonradioactive DCFPyL (0.5 mg). At predetermined time points, the mice were sedated by isoflurane inhalation and euthanized by CO2 inhalation. Blood was withdrawn by cardiac puncture, and organs/tissues of interest were collected, weighed and counted using an automatic gamma counter (Tables S4-S7).

[5] = source organ Large intestine contents
[6] = source organ Remainder of the body
[7] = vs Glu-containing [^68Ga]Ga-HTK03041, 1 h post-injection

## O=C([O-])CN1CCN(CC(=O)[O-])CCN(CC(=O)NCC2CCC(C(=O)NC(Cc3ccc4ccccc4c3)C(=O)NCCCCC(NC(=O)NC(CCC(=O)O)C(=O)O)C(=O)O)CC2)CCN(CC(=O)[O-])CC1.[177Lu+3] (centres unmarked) [[^177Lu]Lu-PSMA-617]
LNCaP tumor-bearing mice [1]
  Median survival: 63 days
[2]; source organ Brain
  Kinetics value: 6.64E-03 MBq-h/MBq
[2]; source organ Heart
  Kinetics value: 3.28E-03 MBq-h/MBq
[2]; source organ Kidneys
  Kinetics value: 8.23E-01 MBq-h/MBq
[2]; [5]
  Kinetics value: 8.80E-03 MBq-h/MBq
[2]; source organ Liver
  Kinetics value: 6.38E-02 MBq-h/MBq
[2]; source organ Lungs
  Kinetics value: 4.85E-03 MBq-h/MBq
[2]; source organ Pancreas
  Kinetics value: 4.76E-03 MBq-h/MBq
[2]; [6]
  Kinetics value: 1.68E-01 MBq-h/MBq
[2]; source organ Small intestine
  Kinetics value: 2.63E-02 MBq-h/MBq
[2]; source organ Spleen
  Kinetics value: 1.41E-02 MBq-h/MBq
[2]; source organ Stomach
  Kinetics value: 2.34E-04 MBq-h/MBq
[2]; source organ Testes
  Kinetics value: 4.23E-03 MBq-h/MBq
[2]; source organ Thyroid
  Kinetics value: 4.01E-04 MBq-h/MBq
[2]; source organ Urinary bladder
  Kinetics value: 8.04E-01 MBq-h/MBq

## O=C([O-])CN1CCN(CC(=O)[O-])CCN(CC(=O)NCC2CCC(C(=O)NC(Cc3c4ccccc4cc4ccccc34)C(=O)NCCCCC(NC(=O)NC(CCC(=O)O)C(=O)O)C(=O)O)CC2)CCN(CC(=O)[O-])CC1.[68Ga+3] (centres unmarked) [[^68Ga]Ga-HTK03141]
LNCaP tumor-bearing mice [3]
  Kidney uptake: 170±26.4 %ID/g
  Tumor uptake: 23.1±6.11 %ID/g
  Salivary gland uptake: 4.99±0.88 %ID/g
  Peaked tumor uptake: 23.1 %ID/g

## COc1ccc(CCCC(=O)NCC(=O)N[C@@H](CCCCNC(=O)CN2CCN(CC(=O)[O-])CCN(CC(=O)[O-])CCN(CC(=O)[O-])CC2)C(=O)NC[C@H]2CC[C@H](C(=O)N[C@@H](Cc3c4ccccc4cc4ccccc34)C(=O)NCCCC[C@H](NC(=O)N[C@@H](COCC(=O)O)C(=O)O)C(=O)O)CC2)cc1.[177Lu+3] [[^177Lu]Lu-HTK04028]
LNCaP tumor-bearing mice [4]; 1 h post-injection
  Adrenal glands uptake: 3.25 ± 0.34 %ID/g
  Blood uptake: 17.7 ± 2.10 %ID/g
  Blood:Salivary gland uptake ratio: 6.93 ± 0.33
  Bone uptake: 0.99 ± 0.21 %ID/g
  Brain uptake: 0.26 ± 0.03 %ID/g
  Fat uptake: 1.26 ± 0.21 %ID/g
  Heart uptake: 4.15 ± 0.31 %ID/g
  Intestines uptake: 1.23 ± 0.24 %ID/g
  Kidneys uptake: 8.30 ± 1.58 %ID/g
  Lacrimal glands uptake: 0.51 ± 0.23 %ID/g
  Liver uptake: 2.93 ± 0.51 %ID/g
  Lungs uptake: 7.88 ± 1.77 %ID/g
  Muscle uptake: 1.32 ± 0.19 %ID/g
  Pancreas uptake: 1.53 ± 0.22 %ID/g
  Salivary glands uptake: 2.55 ± 0.21 %ID/g
  Spleen uptake: 1.53 ± 0.23 %ID/g
  Stomach uptake: 0.51 ± 0.18 %ID/g
  Testes uptake: 2.26 ± 0.46 %ID/g
  Thyroid uptake: 3.30 ± 0.42 %ID/g
  Tumor uptake: 19.0 ± 5.86 %ID/g
  Tumor:Blood uptake ratio: 1.11 ± 0.45
  Tumor:Kidney uptake ratio: 2.39 ± 0.99
  Tumor:Muscle uptake ratio: 14.5 ± 4.46
  Tumor:Salivary gland uptake ratio: 7.60 ± 2.89
LNCaP tumor-bearing mice [4]; 4 h post-injection
  Adrenal glands uptake: 2.18 ± 0.33 %ID/g
  Blood uptake: 12.2 ± 1.66 %ID/g
  Blood:Salivary gland uptake ratio: 7.09 ± 1.45
  Bone uptake: 0.63 ± 0.10 %ID/g
  Brain uptake: 0.19 ± 0.02 %ID/g
  Fat uptake: 0.89 ± 0.24 %ID/g
  Heart uptake: 2.67 ± 0.31 %ID/g
  Intestines uptake: 1.04 ± 0.12 %ID/g
  Kidneys uptake: 9.21 ± 2.76 %ID/g
  Lacrimal glands uptake: 0.39 ± 0.19 %ID/g
  Liver uptake: 2.29 ± 0.55 %ID/g
  Lungs uptake: 5.79 ± 0.44 %ID/g
  Muscle uptake: 0.83 ± 0.09 %ID/g
  Pancreas uptake: 1.24 ± 0.04 %ID/g
  Salivary glands uptake: 1.75 ± 0.25 %ID/g
  Spleen uptake: 1.44 ± 0.31 %ID/g
  Stomach uptake: 0.45 ± 0.06 %ID/g
  Testes uptake: 2.66 ± 0.41 %ID/g
  Thyroid uptake: 2.30 ± 0.30 %ID/g
  Tumor uptake: 42.6 ± 11.6 %ID/g
  Tumor:Blood uptake ratio: 3.60 ± 1.24
  Tumor:Kidney uptake ratio: 4.89 ± 1.58
  Tumor:Muscle uptake ratio: 52.2 ± 17.4
  Tumor:Salivary gland uptake ratio: 24.5 ± 5.95
LNCaP tumor-bearing mice [4]; 24 h post-injection
  Adrenal glands uptake: 0.73 ± 0.13 %ID/g
  Blood uptake: 0.82 ± 0.11 %ID/g
  Blood:Salivary gland uptake ratio: 1.88 ± 0.42
  Bone uptake: 0.11 ± 0.02 %ID/g
  Brain uptake: 0.02 ± 0.00 %ID/g
  Fat uptake: 0.14 ± 0.02 %ID/g
  Heart uptake: 0.36 ± 0.03 %ID/g
  Intestines uptake: 0.23 ± 0.05 %ID/g
  Kidneys uptake: 4.32 ± 0.58 %ID/g
  Lacrimal glands uptake: 0.05 ± 0.04 %ID/g
  Liver uptake: 0.54 ± 0.09 %ID/g
  Lungs uptake: 1.08 ± 0.72 %ID/g
  Muscle uptake: 0.11 ± 0.02 %ID/g
  Pancreas uptake: 0.15 ± 0.02 %ID/g
  Salivary glands uptake: 0.45 ± 0.10 %ID/g
  Spleen uptake: 0.48 ± 0.14 %ID/g
  Stomach uptake: 0.31 ± 0.10 %ID/g
  Testes uptake: 0.55 ± 0.05 %ID/g
  Thyroid uptake: 0.52 ± 0.08 %ID/g
  Tumor uptake: 30.2 ± 2.74 %ID/g
  Tumor:Blood uptake ratio: 37.2 ± 4.22
  Tumor:Kidney uptake ratio: 7.06 ± 0.86
  Tumor:Muscle uptake ratio: 275 ± 35.3
  Tumor:Salivary gland uptake ratio: 69.3 ± 15.8
LNCaP tumor-bearing mice [4]; 72 h post-injection
  Adrenal glands uptake: 0.48 ± 0.17 %ID/g
  Blood uptake: 0.05 ± 0.01 %ID/g
  Blood:Salivary gland uptake ratio: 0.26 ± 0.06
  Bone uptake: 0.05 ± 0.02 %ID/g
  Brain uptake: 0.01 ± 0.00 %ID/g
  Fat uptake: 0.06 ± 0.02 %ID/g
  Heart uptake: 0.12 ± 0.03 %ID/g
  Intestines uptake: 0.07 ± 0.03 %ID/g
  Kidneys uptake: 1.77 ± 0.25 %ID/g
  Lacrimal glands uptake: 0.01 ± 0.01 %ID/g
  Liver uptake: 0.22 ± 0.02 %ID/g
  Lungs uptake: 0.18 ± 0.02 %ID/g
  Muscle uptake: 0.03 ± 0.01 %ID/g
  Pancreas uptake: 0.05 ± 0.01 %ID/g
  Salivary glands uptake: 0.19 ± 0.05 %ID/g
  Spleen uptake: 0.49 ± 0.16 %ID/g
  Stomach uptake: 0.07 ± 0.07 %ID/g
  Testes uptake: 0.31 ± 0.05 %ID/g
  Thyroid uptake: 0.24 ± 0.04 %ID/g
  Tumor uptake: 26.1 ± 7.29 %ID/g
  Tumor:Blood uptake ratio: 550 ± 108
  Tumor:Kidney uptake ratio: 14.6 ± 2.72
  Tumor:Muscle uptake ratio: 886 ± 181
  Tumor:Salivary gland uptake ratio: 144 ± 35.6
LNCaP tumor-bearing mice [4]; 120 h post-injection
  Adrenal glands uptake: 0.33 ± 0.05 %ID/g
  Blood uptake: 0.02 ± 0.00 %ID/g
  Blood:Salivary gland uptake ratio: 0.17 ± 0.04
  Bone uptake: 0.04 ± 0.02 %ID/g
  Fat uptake: 0.03 ± 0.01 %ID/g
  Heart uptake: 0.07 ± 0.01 %ID/g
  Intestines uptake: 0.08 ± 0.05 %ID/g
  Kidneys uptake: 1.16 ± 0.13 %ID/g
  Liver uptake: 0.16 ± 0.02 %ID/g
  Lungs uptake: 0.09 ± 0.01 %ID/g
  Muscle uptake: 0.02 ± 0.00 %ID/g
  Pancreas uptake: 0.03 ± 0.00 %ID/g
  Salivary glands uptake: 0.11 ± 0.03 %ID/g
  Spleen uptake: 0.54 ± 0.15 %ID/g
  Stomach uptake: 0.10 ± 0.10 %ID/g
  Testes uptake: 0.22 ± 0.01 %ID/g
  Thyroid uptake: 0.13 ± 0.02 %ID/g
  Tumor uptake: ~ 28 %ID/g
  Tumor:Blood uptake ratio: 1714 ± 320
  Tumor:Kidney uptake ratio: 24.9 ± 5.16
  Tumor:Muscle uptake ratio: 1825 ± 415
  Tumor:Salivary gland uptake ratio: 284 ± 87.9
LNCaP tumor-bearing mice [4]; 120 h post-injection, listed as [177Lu]Lu-HTK04028
  Tumor uptake: 28.4 ± 5.11 %ID/g
LNCaP tumor-bearing mice [4]; peak over 1-120 h post-injection
  Peaked average tumor uptake: ~ 43 %ID/g and 42.6 %ID/g
LNCaP tumor-bearing mice [4]
  Time of peak tumor uptake: 4 h
LNCaP tumor-bearing mice [4]; listed as 177Lu-labeled HTK04028
  Time of peak tumor uptake: 4 to 24 h

## O=C([O-])CN1CCN(CC(=O)[O-])CCN(CC(=O)NCC2CCC(C(=O)NC(Cc3c4ccccc4cc4ccccc34)C(=O)NCCCCC(NC(=O)NC(CCCC(=O)O)C(=O)O)C(=O)O)CC2)CCN(CC(=O)[O-])CC1.[177Lu+3] (centres unmarked) [[^177Lu]Lu-HTK03149]
[2]; source organ Brain
  Kinetics value: 2.23E-03 MBq-h/MBq
[2]; source organ Cortical bone
  Kinetics value: 7.60E-02 MBq-h/MBq
[2]; source organ Heart
  Kinetics value: 1.94E-02 MBq-h/MBq
[2]; source organ Kidneys
  Kinetics value: 2.41E-01 MBq-h/MBq
[2]; [5]
  Kinetics value: 9.24E-02 MBq-h/MBq
[2]; source organ Liver
  Kinetics value: 3.91E-01 MBq-h/MBq
[2]; source organ Lungs
  Kinetics value: 1.72E-02 MBq-h/MBq
[2]; source organ Pancreas
  Kinetics value: 1.79E-02 MBq-h/MBq
[2]; [6]
  Kinetics value: 5.31E-01 MBq-h/MBq
[2]; source organ Spleen
  Kinetics value: 2.30E-02 MBq-h/MBq
[2]; source organ Stomach
  Kinetics value: 8.07E-03 MBq-h/MBq
[2]; source organ Testes
  Kinetics value: 1.29E-02 MBq-h/MBq
[2]; source organ Thyroid
  Kinetics value: 2.03E-03 MBq-h/MBq
[2]; source organ Urinary bladder
  Kinetics value: 8.14E-01 MBq-h/MBq

## O=C([O-])CN1CCN(CC(=O)[O-])CCN(CC(=O)NCC2CCC(C(=O)NC(Cc3c4ccccc4cc4ccccc34)C(=O)NCCCCC(NC(=O)NC(CCCC(=O)O)C(=O)O)C(=O)O)CC2)CCN(CC(=O)[O-])CC1.[68Ga+3] (centres unmarked) [[^68Ga]Ga-HTK03149]
LNCaP tumor-bearing mice [3]
  Kidney uptake: 4.15±1.46 %ID/g
  Tumor uptake: 19.1±6.37 %ID/g
  Salivary gland uptake: 0.22±0.06 %ID/g
LNCaP tumor-bearing mice [3]; listed as [^68Ga]HTK03149
  Tumor uptake: ~ 20 %ID/g
LNCaP tumor-bearing mice [3]; [7]
  Reduction in kidney uptake: > 95%
  Reduction in salivary gland uptake: > 95%
